Assay results: patent publication US3954733A, “Naphthyridine-3-carboxamido-benzylpenicillins and salts thereof” (Sumitomo Chemical Company, Limited, priority 1973, dated 1976)
≈ marks a conversion by molar mass, not a printed value.

Legend:
Test in all cases: minimal inhibitory concentration, agar dilution method
Type in all cases: cell-based
[1] = tested on: Proteus vulgaris HV19
[2] = tested on: Escherichia coli NIHJ
Excerpt: (§1) When determined according to the agar dilution method, the penicillins (I) afford the minimal inhibitory concentrations against test microorganisms as shown in Table 2.

[3] = tested on: Proteus miravilis GN2425
[4] = tested on: Pseudomonas aeruginosa 104
Excerpt: as §1

[5] = tested on: Staphylococcus aureus 209P
Excerpt: as §1

With `CC1(C)S[C@@H]2[C@H](NC(=O)C(NC(=O)c3cnc4cccnc4c3O)c3ccc(O)cc3)C(=O)N2[C@H]1C(=O)O` (mixture of isomers) [Example 2, DL-α-(4-hydroxy-1,5-naphthyridine-3-carboxamido)-p-hydroxybenzylpenicillin] the MIC [1] was 0.025 µg/mL, the MIC [2] was 3.13 µg/mL and the MIC [3] was 3.13 µg/mL.
`CCOC(=O)Oc1ccc(C(NC(=O)c2cnc3ccc(N(C)C)nc3c2O)C(=O)N[C@@H]2C(=O)N3[C@@H]2SC(C)(C)[C@@H]3C(=O)O)cc1` (mixture of isomers) [Example 3, DL-α-(4-hydroxy-6-dimethylamino-1,5-naphthyridine-3-carboxamido)-p-ethoxycarbonyloxybenzylpenicillin] showed an MIC [1] of 0.1 µg/mL, an MIC [4] of 3.13 µg/mL and an MIC [2] of 1.56 µg/mL. The MIC [5] was 1.56 µg/mL and the MIC [3] was 1.56 µg/mL.
In the case of `CC1(C)S[C@@H]2[C@H](NC(=O)C(NC(=O)c3cnc4ccccc4c3O)c3ccc(O)cc3)C(=O)N2[C@H]1C(=O)O` (mixture of isomers) [Example 6, DL-α-(4-hydroxyquinoline-3-carboxamido)-p-hydroxybenzylpenicillin], the MIC [1] is reported as 0.2 µg/mL, the MIC [4] is reported as 6.25 µg/mL and the MIC [2] is reported as 6.25 µg/mL. It also gave an MIC [5] of 0.78 µg/mL and an MIC [3] of 6.25 µg/mL.
`CC1(C)S[C@@H]2[C@H](NC(=O)C(C(=O)O)c3ccccc3)C(=O)N2[C@H]1C(=O)O` (stereo partly shown) [Carbenicillin, reference compound] was tested, and the MIC [4] was 50 to 100 µg/mL (≈ 132 to 264 µM), the MIC [2] was 12.5 µg/mL (≈ 33 µM) and the MIC [5] was 0.78 µg/mL (≈ 2.06 µM). It also gave an MIC [3] of 0.78 µg/mL (≈ 2.06 µM).
Work on `CC1(C)S[C@@H]2[C@H](NC(=O)[C@H](NC(=O)c3cnc4cccnc4c3O)c3ccc(O)cc3)C(=O)N2[C@H]1C(=O)O` [Example 1, D-α-(4-hydroxy-1,5-naphthyridine-3-carboxamido)-p-hydroxybenzylpenicillin] yielded an MIC [1] of 0.025 µg/mL (≈ 0.0465 µM), an MIC [4] of 1.56 µg/mL (≈ 2.9 µM) and an MIC [2] of 1.56 µg/mL (≈ 2.9 µM). For the same compound, the MIC [5] was 0.78 µg/mL (≈ 1.45 µM) and the MIC [3] was 1.56 µg/mL (≈ 2.9 µM).
In the case of `CC(C)(C)C(=O)Oc1ccc([C@@H](NC(=O)c2cnc3ccccc3c2O)C(=O)N[C@@H]2C(=O)N3[C@@H]2SC(C)(C)[C@@H]3C(=O)O)cc1` [Example 4, D-α-(4-hydroxyquinoline-3-carboxamido)-p-pivaloyloxybenzylpenicillin], the MIC [1] is reported as 0.2 µg/mL (≈ 0.322 µM), the MIC [4] is reported as 6.25 µg/mL (≈ 10.1 µM) and the MIC [2] is reported as 6.25 µg/mL (≈ 10.1 µM). It also gave an MIC [5] of 0.39 µg/mL (≈ 0.628 µM) and an MIC [3] of 6.25 µg/mL (≈ 10.1 µM).
Compound `CCOC(=O)Oc1c(C(=O)N[C@@H](C(=O)N[C@@H]2C(=O)N3[C@@H]2SC(C)(C)[C@@H]3C(=O)O)c2ccc(OC(=O)OCc3ccccc3)cc2)cnc2cccnc12` [Example 5, D-α-(4-ethoxycarbonyloxy-1,5-naphthyridine-3-carboxamido)-p-benzyloxycarbonyloxybenzylpenicillin] has an MIC [1] of 0.05 µg/mL (≈ 0.0672 µM), an MIC [4] of 3.13 µg/mL (≈ 4.21 µM) and an MIC [2] of 3.13 µg/mL (≈ 4.21 µM). The MIC [5] was 1.56 µg/mL (≈ 2.1 µM) and the MIC [3] was 3.13 µg/mL (≈ 4.21 µM).
Compound `Cc1ccc2c(O)c(C(=O)N[C@@H](C(=O)N[C@@H]3C(=O)N4[C@@H]3SC(C)(C)[C@@H]4C(=O)O)c3ccc(O)cc3)cnc2n1` [Example 7, D-α-(4-hydroxy-7-methyl-1,8-naphthyridine-3-carboxamido)-p-hydroxybenzylpenicillin] has an MIC [1] of 0.05 µg/mL (≈ 0.0906 µM), an MIC [4] of 1.56 µg/mL (≈ 2.83 µM) and an MIC [2] of 1.56 µg/mL (≈ 2.83 µM). It also gave an MIC [5] of 0.78 µg/mL (≈ 1.41 µM) and an MIC [3] of 3.13 µg/mL (≈ 5.67 µM).
`CC1(C)S[C@@H]2[C@H](NC(=O)[C@H](NC(=O)c3nnc4ccccc4c3O)c3ccc(O)cc3)C(=O)N2[C@H]1C(=O)O` [Example 8, D-α-(4-hydroxycinnoline-3-carboxamido)-p-hydroxybenzylpenicillin] showed an MIC [4] of 12.5 µg/mL (≈ 23.3 µM), an MIC [2] of 12.5 µg/mL (≈ 23.3 µM) and an MIC [5] of 0.78 µg/mL (≈ 1.45 µM). It also gave an MIC [3] of 12.5 µg/mL (≈ 23.3 µM).
`CCOC(=O)Oc1ccc([C@@H](NC(=O)c2cnc3cccnc3c2O)C(=O)N[C@@H]2C(=O)N3[C@@H]2SC(C)(C)[C@@H]3C(=O)O)cc1` [Example 9, D-α-(4-hydroxy-1,5-naphthyridine-3-carboxamido)-p-ethoxycarbonyloxybenzylpenicillin] gave an MIC [1] of 0.05 µg/mL (≈ 0.082 µM), an MIC [4] of 3.13 µg/mL (≈ 5.13 µM) and an MIC [2] of 3.13 µg/mL (≈ 5.13 µM). It also gave an MIC [5] of 1.56 µg/mL (≈ 2.56 µM) and an MIC [3] of 3.13 µg/mL (≈ 5.13 µM).
In the case of `CCOC(=O)Oc1ccc([C@@H](NC(=O)c2cnc3cc(Cl)ccc3c2O)C(=O)N[C@@H]2C(=O)N3[C@@H]2SC(C)(C)[C@@H]3C(=O)O)cc1` [Example 10], the MIC [5] is reported as 0.39 µg/mL (≈ 0.606 µM) and the MIC [3] is reported as 0.78 µg/mL (≈ 1.21 µM).
`CC1(C)S[C@@H]2[C@H](NC(=O)[C@H](NC(=O)c3cnc4cc(C(F)(F)F)ccc4c3O)c3ccc(O)cc3)C(=O)N2[C@H]1C(=O)O` [Example 11] gave an MIC [4] of 12.5 µg/mL (≈ 20.7 µM), an MIC [2] of 12.5 µg/mL (≈ 20.7 µM) and an MIC [3] of 3.13 µg/mL (≈ 5.18 µM).
`CCOC(=O)Oc1ccc([C@@H](NC(=O)c2cnc3ccccc3c2OC(=O)OCC)C(=O)N[C@@H]2C(=O)N3[C@@H]2SC(C)(C)[C@@H]3C(=O)O)cc1` [Example 12] showed an MIC [1] of 0.2 µg/mL (≈ 0.294 µM), an MIC [4] of 6.25 µg/mL (≈ 9.18 µM) and an MIC [2] of 3.13 µg/mL (≈ 4.6 µM). For the same compound, the MIC [5] was 0.78 µg/mL (≈ 1.15 µM) and the MIC [3] was 3.13 µg/mL (≈ 4.6 µM).
In the case of `CC1(C)S[C@@H]2[C@H](NC(=O)[C@H](NC(=O)c3cnc4ccccc4c3O)c3cccc(O)c3)C(=O)N2[C@H]1C(=O)O` [Example 13], the MIC [1] is reported as 0.2 µg/mL (≈ 0.373 µM), the MIC [4] is reported as 6.25 µg/mL (≈ 11.6 µM) and the MIC [2] is reported as 6.25 µg/mL (≈ 11.6 µM). The MIC [5] was 0.78 µg/mL (≈ 1.45 µM) and the MIC [3] was 3.13 µg/mL (≈ 5.83 µM).
Compound `CC1(C)S[C@@H]2[C@H](NC(=O)[C@H](NC(=O)c3cnc4ccccc4c3O)c3ccc(O)c(Cl)c3)C(=O)N2[C@H]1C(=O)O` [Example 14] has an MIC [4] of 6.25 µg/mL (≈ 10.9 µM), an MIC [2] of 6.25 µg/mL (≈ 10.9 µM) and an MIC [5] of 0.78 µg/mL (≈ 1.37 µM). The MIC [3] was 6.25 µg/mL (≈ 10.9 µM).
In the case of `CCOC(=O)Oc1ccc([C@@H](NC(=O)c2cnc3nc(C)ccc3c2O)C(=O)N[C@@H]2C(=O)N3[C@@H]2SC(C)(C)[C@@H]3C(=O)O)cc1` [Example 15], the MIC [1] is reported as 0.1 µg/mL (≈ 0.16 µM), the MIC [4] is reported as 3.13 µg/mL (≈ 5.02 µM) and the MIC [2] is reported as 3.13 µg/mL (≈ 5.02 µM). The MIC [5] was 1.56 µg/mL (≈ 2.5 µM) and the MIC [3] was 6.25 µg/mL (≈ 10 µM).
